Article PMC5570900, “Exploiting a novel conformational switch to control innate immunity mediated by complement protein C3a” (Nature Communications, 2017)
Each block holds one molecule with its values, some of them ahead of it.

Assays:
C3aR [1] = target: T1, C3aR (Homo sapiens, UniProt Q16581); test: Inhibition of hC3a-induced Ca2+ release in human monocyte-derived macrophages; format: cell-based; set-up: Concentration-dependent Ca^2+ release in human monocyte-derived macrophages (HMDMs); endogenous in cells; host or cells: primary human monocyte-derived macrophages (HMDMs); conditions: HMDMs, hC3a 100 nM, n ≥ 3, ± SEM
T1 sequence (Q16581 1-482): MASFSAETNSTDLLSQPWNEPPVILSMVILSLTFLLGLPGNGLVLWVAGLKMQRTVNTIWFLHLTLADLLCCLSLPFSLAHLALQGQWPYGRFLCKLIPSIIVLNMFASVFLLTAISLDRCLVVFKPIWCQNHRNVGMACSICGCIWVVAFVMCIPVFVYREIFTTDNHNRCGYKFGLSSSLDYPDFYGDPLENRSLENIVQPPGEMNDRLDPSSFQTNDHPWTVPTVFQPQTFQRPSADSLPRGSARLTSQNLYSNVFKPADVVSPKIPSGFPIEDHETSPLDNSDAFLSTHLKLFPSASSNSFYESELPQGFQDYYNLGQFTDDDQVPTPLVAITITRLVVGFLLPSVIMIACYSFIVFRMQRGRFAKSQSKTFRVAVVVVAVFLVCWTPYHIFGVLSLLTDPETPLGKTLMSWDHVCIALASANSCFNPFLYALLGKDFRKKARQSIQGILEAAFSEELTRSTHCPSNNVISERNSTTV
Protocol: (§1) HMDMs were isolated using Ficoll-paque density centrifugation (GE Healthcare Bio-Science, Uppsala, Sweden) from buffy coat (of anonymous human donors) provided by the Australian Red Cross Blood Service, Brisbane. CD14^+ monocytes were positively selected using CD14 MicroBeads (Miltenyi Biotech, Auburn, USA)[40], [41]. CD14^+ monocytes were differentiated to HMDMs using 100 ng/mL of recombinant human macrophage colony-stimulating factor (PeptroTech, Rocky Hill, USA) for 7 days in Iscove’s modified Dulbecco’s media supplemented with 10% fetal bovine serum, penicillin (100 U/mL), streptomycin (100 µg/mL) and L-glutamine (2 mM). HMDMs were supplemented after 5 days with fresh medium containing 10 ng/ml macrophage colony-stimulating factor and collected by gentle scraping on day 7.
(§2) HMDMs were seeded to a 96-well clear-bottom black-wall assay plate at a density of 5 × 10^4 cells per well and allowed to adhere overnight. Prior to assay, cells were incubated with dye-loading buffer (Hank’s balance salt solution (HBSS) buffer, 4 μM Fluo-3 AM, 25 μl Pluronic acid F-127 and 1% fetal bovine serum) for 1 h at 37 °C. Cells were then washed once with assay buffer (HBSS supplemented with 2.5 mM probenecid and 20 mM HEPES, pH 7.4). Intracellular calcium release was monitored using a fluorescence imaging plate reader (excitation 495 nm, emission 520 nm). The percentage responses were plotted against logarithmic concentrations of each test compound[42].

C3aR [2] = target: T1, C3aR; test: Intracellular Ca2+ release in human monocyte-derived macrophages (agonist mode); format: cell-based; set-up: Concentration-dependent Ca^2+ release in human monocyte-derived macrophages (HMDMs); endogenous in cells; host or cells: primary human monocyte-derived macrophages (HMDMs); conditions: HMDMs, n ≥ 3, ± SEM
Protocol: as §1, §2

C3aR [3] = target: T1, C3aR; test: Histamine secretion in human LAD2 mast cells (agonist mode); format: cell-based; set-up: Concentration-dependent histamine secretion in human LAD2 mast cells; endogenous in cells; host or cells: LAD2 human mast cells; conditions: for EC50: compound alone, 30 min, n ≥ 3, ± SEM
Protocol: LAD2 human mast cells (kindly provided by Dr Dean Metcalfe, National Institute of Allergy and Infectious Diseases, National Institute of Health) were cultured in StemPro®-34 Serum Free Media (Invitrogen, Australia) supplemented with StemPro®-34 nutrient, 100 U/mL penicillin, 100 μg/mL streptomycin, 2 mM GlutaMAX, and 100 ng/mL human stem cell factor (SCF). Cells were hemi-depleted weekly and were not allowed to grow beyond a density of 0.5 × 10^6/mL. This cell line was authenticated by expression of tryptase and histamine granules. For the histamine assay, 1 × 10^4 cells per well were seeded in StemPro®-34 SFM in 96-well plates for 30 min before any treatments. For agonist studies, the cells were treated with compounds prepared in media for 30 min. For antagonist studies, the cells were pre-treated with compounds prepared in SFM for 30 min before addition of C3aR agonists for another 30 min. Cells were centrifuged (500 g, 5 min, 4 °C) and cell-free supernatants were collected for measuring histamine. Histamine content was measured using the histamine EIA kit according to the manufacturer’s instructions (Abnova, Taiwan). The readings were recorded on a FLUOstar Optima (BMG LabTechnologies, Offenburg, Germany).

C5aR = target: T2, C5aR (Homo sapiens, UniProt P21730); test: [125I]-hC5a competition binding on HMDMs; conditions: [125I]-hC5a 25 pM
T2 construct: endogenous in cells; host or cells: primary human monocyte-derived macrophages (HMDMs)
T2 sequence (P21730 1-350): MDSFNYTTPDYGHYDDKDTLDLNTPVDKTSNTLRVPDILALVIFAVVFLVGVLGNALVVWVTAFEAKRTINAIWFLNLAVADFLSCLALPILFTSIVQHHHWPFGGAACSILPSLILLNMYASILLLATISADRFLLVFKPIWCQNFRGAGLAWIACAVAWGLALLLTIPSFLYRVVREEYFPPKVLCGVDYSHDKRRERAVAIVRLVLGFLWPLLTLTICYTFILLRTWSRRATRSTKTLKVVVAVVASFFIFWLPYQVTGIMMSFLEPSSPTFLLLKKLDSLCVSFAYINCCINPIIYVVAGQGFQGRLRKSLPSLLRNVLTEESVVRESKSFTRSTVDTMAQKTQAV
Protocol: Receptor binding was performed by ligand competition with labelled 80 pM [^125I]-C3a or 25 pM [^125I]-C5a (2200 Ci/mmol; Perkin Elmer, Torrance, CA, USA) on HMDMs (1.2 × 10^6 cells/ml). HMDMs were treated with [^125I]-C3a or [^125I]-C5a ± various concentrations of unlabelled C3a/C5a or experimental ligands were diluted with assay buffer (50 mM Tris, 3 mM MgCl2, 0.1 mM CaCl2, 0.5% (w/v) BSA, pH 7.4) for 60 min at room temperature. Unbound [^125I]-C3a or [^125I]-C5a was removed by filtration through glass microfibre filter GF/B (Whatman Iner. Ltd, England) and washed three times with cold buffer (50 mM Tris-HCl pH 7.4). Bound [^125I]-C3a or [^125I]-C5a were assessed by scintillation counting on Microbeta counter. Specific binding was defined as the difference between total binding and nonspecific binding as determined in the presence of 1 μM unlabelled C3a or C5a[4].

mast cells = test: Mast cell stabilizer in BR103-induced rat paw edema; format: in vivo; conditions: 20 mg/kg s.c., 30 min prior, 0.5 h
Protocol: Male Wistar rats (8–9 weeks) were injected with BR103 (3, 350 μg in 100 μL isotonic saline) into the plantar surface of both hind paw pads using a 30G needle. The inhibitor cromolyn (20 mg/kg in 5% DMSO) was injected subcutaneously 30 min before the agonist. The antagonist BR111 (6, 5–20 mg/kg in olive oil) was administered orally as a single dose 2 h before the agonist. Paw thickness and width were measured using digital calipers (WPI) at 0, 0.5, 2, 6 and 24 h after agonist BR103 administration. Hind paw size is expressed as % change in area from baseline after 0.5 h and then normalized against maximum swelling induced by agonist alone. Researchers were not blinded to treatments given. Rat paw tissue was collected and fixed in 4% paraformaldehyde (pH 7.4) for 2 h in the cold room (4 °C). The rat paw tissue was then transferred into falcon tubes containing 30% sucrose solution in PBS and left overnight in the cold room. The next day, rat paw tissue was embedded with the Optimal Cutting Temperature compound (OCT, Sakura Finetek, USA) and stored in the −80 °C freezer before being used for making cryo-sections for histological analysis. Frozen sections of 5 microns were prepared using a cryostat-microtome (Leica Biosystems, Germany) and stained using standard protocols on the same day. In normal histological staining, such as with alcian blue and safranin O and hematoxylin and eosin (H&E), samples were briefly washed with distilled water before staining. In alcian blue and safranin O, samples were stained with 0.1% alcian blue (Sigma-Aldrich, USA) and 0.5% safranin O (Sigma-Aldrich, USA) before being mounted in mounting medium. In H&E, samples were stained with hematoxylin (Sigma-Aldrich, USA) and 0.1% eosin (Sigma-Aldrich, USA) before being mounted in mounting medium. In immunohistochemistry, samples were briefly rinsed with PBS to remove OCT and incubated with blocking medium (PBS, 0.1% triton X-100, 10% horse serum) for 1 h at room temperature. Samples were incubated with primary antibody medium (PBS, 4% horse serum, 1:200 histamine or 1:200 of tryptase or 1:150 ED1 or 1:200 ED2 antibodies) overnight at 4 °C. The next day, samples were washed with PBS and were incubated with the secondary antibody medium (PBS, 4% horse serum, detection antibody 1:1000) for 1 h at room temperature. The samples were briefly rinsed, dried and counterstained with DAPI (Invitrogen, Australia). Primary antibodies for histamine (Sigma-Aldrich, USA, H2403, monoclonal rabbit anti-rat IgG, 1: 200), tryptase (Abcam, Australia, ab2378, monoclonal mouse anti-rat IgG, 1:200), ED1 (Serotec, UK, MCA341R, monoclonal mouse anti-rat, 1:150), ED2 (Serotec, UK, MCA3424R, monoclonal mouse anti-rat, 1:200) were purchased from commercial sources. Secondary detection antibody was purchased from (Invitrogen, Australia). ED1 & ED2 positive cells were quantified using FIJI/ImageJ 1.42q software, U.S. National Institutes of Health, Bethesda, MD, USA[44]. All microscope images were obtained using an Olympus BX-51 upright microscope with Olympus DP-71 12Mp colour camera, utilizing DP Capture and DP Manager software packages (Olympus, Tokyo, Japan). Researchers who performed histological analysis and scoring were blinded to the sample identity. Rat paw tissues were collected and immediately frozen with liquid nitrogen. Frozen rat paw tissues were cut into smaller pieces and mixed with 1 mL of TRIsure (Bioline, Australia) prior to homogenizing according to manufacturer’s instructions. […]

IC50 (C3aR [1]): 2000 ± 1100 nM
Molecule: Cc1nc(C(c2ccccc2)c2ccccc2)sc1C(=O)NC(CCCNC(=N)N)C(=O)O (stereo not drawn) [Compound 5]

EC50 (C3aR [2]): 50 ± 20 nM
Type of agonist response, histamine release (C3aR [3]): partial agonist
EC50 (C3aR [3]): 110 ± 40 nM
Molecule: N=C(N)NCCC[C@H](NC(=O)c1csc(C(c2ccccc2)c2ccccc2)n1)C(=O)O [Compound 1]

IC50 (C3aR [1]): 600 ± 200 nM
Molecule: N=C(N)NCCCC(NC(=O)c1cnc(C(c2ccccc2)c2ccccc2)s1)C(=O)O (stereo not drawn) [Compound 4]

EC50 (C3aR [2]): 140 ± 60 nM
Type of agonist response, histamine release (C3aR [3]): full agonist response
EC50 (C3aR [3]): 300 ± 100 nM
Molecule: Cc1sc(C(c2ccccc2)c2ccccc2)nc1C(=O)N[C@@H](CCCNC(=N)N)C(=O)O [Compound 2]

C5aR binding by competition with [125I]-hC5a (C5aR): C5aR-binding
Molecule: Ac-cyclo-(2,6)-Phe-[Orn-Pro-dCha-Trp-Arg] [Compound 3D53, reference compound]

Molecule: O=C(O)c1cc(=O)c2c(OCC(O)COc3cccc4oc(C(=O)O)cc(=O)c34)cccc2o1 [cromolyn]
Effect on BR103-induced histamine expression in paw (mast cells): reduced histamine expression
Effect on BR103-induced infiltration of ED1+ macrophages (mast cells): reduced infiltration of inflammatory ED1^+ macrophages
Effect on BR103-induced inflammatory gene expression (Il1β, Il6, Tnf, Ccl3, Mcp1) (mast cells): reduced expression of early response inflammatory genes
Effect on BR103-induced mast cell activation and degranulation (mast cells): attenuated BR103-induced increased activation
Effect on BR103-induced paw swelling (mast cells; BR103 350 µg/paw i.pl.): significant reduction in BR103-induced paw swelling at 0.5 h, almost back to baseline levels

C5aR binding by competition with [125I]-hC5a (C5aR): C5aR-binding
B1: hC5a: human complement protein C5a, ligand of C5aR (protein, UniProt P01031 678-751, looked up)
C5a anaphylatoxin: TLQKKIEEIAAKYKHSVVKKCCYDGACVNNDETCEQRAARISLGPRCIKAFTECCVVASQLRANISHKDMQLGR
modifications: C5a anaphylatoxin
notes: human complement protein C5a, ligand of C5aR
